{"source": "patent US8846653B2", "about": "“Delta-tocotrienol treatment and prevention of pancreatic cancer” (University of South Florida, priority 2006, dated 2014)", "assay_type_in_all_cases": "cell-based, human", "key": {"[1]": {"tested_on": "SW1990 pancreatic cancer cells", "experiment": "MTS assay of SW1990 cultures, single 50 μM dose", "settings": "SW1990, 50 μM", "outline": "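SW1990 cells were grown in DMEM with 10% FBS at 37 °C, 5% CO2. They were given one 50 μM dose of a tocotrienol, tocopherol, tocopherol succinate, geranylgeraniol or succinic acid, in an olive-oil-extract vehicle. MTS viability was read at 24, 48 or 72 h and compared with vehicle-only cultures.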"}, "BXPC3 cells": {"tested_on": "BXPC3 cells", "experiment": "MTT assay of BXPC3 cultures, single 50 μM dose", "parameters": "MTT assay result, run 1 / MTT assay result, run 2 / MTT assay result, run 3 / MTT assay result, run 4 / MTT assay result, run 5 / MTT assay result, run 6 / MTT assay result, run 7 / MTT assay result, av (average) / MTT assay result, av-blank / MTT assay result, av: unit not given here", "settings": "BXPC3, 50 μM; for MTT assay result, av-blank: average minus blank", "outline": "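BXPC3 cells in 10% FBS medium at 37° C, 5% CO2, given a single 50 μM dose of tocotrienols, tocopherols, tocopherol succinate, geranylgeraniol, succinic acid or vehicle, alongside untreated control. Viability read by MTT at 48 or 120 hours.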"}, "MiaPaCa-2 cells": {"tested_on": "MiaPaCa-2 cells", "experiment": "MTS assay of MiaPaCa2 cultures, single 50 μM dose", "settings": "MiaPaCa2, 50 μM", "outline": "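MiaPaCa-2 pancreatic cancer cells were grown in complete DMEM with 10% fetal bovine serum, 1% penicillin-streptomycin and 1% L-glutamine, kept at 37° C. in a humidified 5% CO2 incubator. They received a single 50 μM dose of test agent or vehicle alongside an untreated control culture, and viability was assessed by MTS assay.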"}}, "data": [{"molecule": "Cc1c(C)c2c(c(C)c1O)CC[C@@](C)(CCC[C@H](C)CCC[C@H](C)CCCC(C)C)O2", "note": "[T alpha, alpha tocopherol]", "values": [{"measurement": "rel amnt (relative value set to the control)", "setting": "[1]; 24 hours", "result": 122}, {"measurement": "MTS assay result, run 1", "setting": "[1]; 24 hours", "result": 0.188}, {"measurement": "MTS assay result, run 2", "setting": "[1]; 24 hours", "result": 0.183}, {"measurement": "MTS assay result, run 3", "setting": "[1]; 24 hours", "result": 0.189}, {"measurement": "MTS assay result, run 4", "setting": "[1]; 24 hours", "result": 0.166}, {"measurement": "MTS assay result, run 5", "setting": "[1]; 24 hours", "result": 0.183}, {"measurement": "MTS assay result, run 6", "setting": "[1]; 24 hours", "result": 0.181}, {"measurement": "MTS assay result, run 7", "setting": "[1]; 24 hours", "result": 0.186}, {"measurement": "MTS assay result, run 8", "setting": "[1]; 24 hours", "result": 0.16}, {"measurement": "MTS assay result, run 9", "setting": "[1]; 24 hours", "result": 0.180}, {"measurement": "rel amnt (relative value set to the control)", "setting": "[1]; 48 hours", "result": 107}, {"measurement": "MTS assay result, run 1", "setting": "[1]; 48 hours", "result": 0.172}, {"measurement": "MTS assay result, run 2", "setting": "[1]; 48 hours", "result": 0.17}, {"measurement": "MTS assay result, run 3", "setting": "[1]; 48 hours", "result": 0.16}, {"measurement": "MTS assay result, run 4", "setting": "[1]; 48 hours", "result": 0.154}, {"measurement": "MTS assay result, run 5", "setting": "[1]; 48 hours", "result": 0.154}, {"measurement": "MTS assay result, run 6", "setting": "[1]; 48 hours", "result": 0.167}, {"measurement": "MTS assay result, run 7", "setting": "[1]; 48 hours", "result": 0.18}, {"measurement": "MTS assay result, run 8", "setting": "[1]; 48 hours", "result": 0.146}, {"measurement": "MTS assay result, run 9", "setting": "[1]; 48 hours", "result": 0.163}, {"measurement": "rel amnt (relative value set to the control)", "setting": "[1]; 72 hours", "result": 103}, {"measurement": "MTS assay result, run 1", "setting": "[1]; 72 hours", "result": 0.523}, {"measurement": "MTS assay result, run 2", "setting": "[1]; 72 hours", "result": 0.478}, {"measurement": "MTS assay result, run 3", "setting": "[1]; 72 hours", "result": 0.46}, {"measurement": "MTS assay result, run 4", "setting": "[1]; 72 hours", "result": 0.453}, {"measurement": "MTS assay result, run 5", "setting": "[1]; 72 hours", "result": 0.443}, {"measurement": "MTS assay result, run 6", "setting": "[1]; 72 hours", "result": 0.456}, {"measurement": "MTS assay result, run 7", "setting": "[1]; 72 hours", "result": 0.38}, {"measurement": "MTS assay result, run 8", "setting": "[1]; 72 hours", "result": 0.451}, {"measurement": "MTS assay result, run 9", "setting": "[1]; 72 hours", "result": 0.456}, {"measurement": "rel amt (relative value set to the control)", "setting": "BXPC3 cells; 48 hours", "result": 120}, {"measurement": "MTT assay result, av-blank", "setting": "BXPC3 cells; 48 hours", "result": 0.274}, {"measurement": "MTT assay result, av (average)", "setting": "BXPC3 cells; 48 hours, average of 7 runs", "result": 0.323}, {"measurement": "MTT assay result, run 1", "setting": "BXPC3 cells; 48 hours", "result": 0.333}, {"measurement": "MTT assay result, run 2", "setting": "BXPC3 cells; 48 hours", "result": 0.328}, {"measurement": "MTT assay result, run 3", "setting": "BXPC3 cells; 48 hours", "result": 0.352}, {"measurement": "MTT assay result, run 4", "setting": "BXPC3 cells; 48 hours", "result": 0.296}, {"measurement": "MTT assay result, run 5", "setting": "BXPC3 cells; 48 hours", "result": 0.3}, {"measurement": "MTT assay result, run 6", "setting": "BXPC3 cells; 48 hours", "result": 0.341}, {"measurement": "MTT assay result, run 7", "setting": "BXPC3 cells; 48 hours", "result": 0.312}, {"measurement": "rel amt (relative value set to the control)", "setting": "BXPC3 cells; 120 hours (5 days)", "result": 106}, {"measurement": "MTT assay result, av-blank", "setting": "BXPC3 cells; 120 hours (5 days)", "result": 0.611}, {"measurement": "MTT assay result, av", "setting": "BXPC3 cells; 120 hours (5 days), average of 7 runs", "result": 0.666}, {"measurement": "MTT assay result, run 1", "setting": "BXPC3 cells; 120 hours (5 days)", "result": 0.657}, {"measurement": "MTT assay result, run 2", "setting": "BXPC3 cells; 120 hours (5 days)", "result": 0.642}, {"measurement": "MTT assay result, run 3", "setting": "BXPC3 cells; 120 hours (5 days)", "result": 0.666}, {"measurement": "MTT assay result, run 4", "setting": "BXPC3 cells; 120 hours (5 days)", "result": 0.659}, {"measurement": "MTT assay result, run 5", "setting": "BXPC3 cells; 120 hours (5 days)", "result": 0.705}, {"measurement": "MTT assay result, run 6", "setting": "BXPC3 cells; 120 hours (5 days)", "result": 0.66}, {"measurement": "MTT assay result, run 7", "setting": "BXPC3 cells; 120 hours (5 days)", "result": 0.672}, {"measurement": "rel amt (relative value set to the control)", "setting": "MiaPaCa-2 cells; 24 hours", "result": 111}, {"measurement": "MTS assay result, run 1", "setting": "MiaPaCa-2 cells; 24 hours", "result": 0.249}, {"measurement": "MTS assay result, run 2", "setting": "MiaPaCa-2 cells; 24 hours", "result": 0.25}, {"measurement": "MTS assay result, run 3", "setting": "MiaPaCa-2 cells; 24 hours", "result": 0.253}, {"measurement": "MTS assay result, run 4", "setting": "MiaPaCa-2 cells; 24 hours", "result": 0.207}, {"measurement": "MTS assay result, run 5", "setting": "MiaPaCa-2 cells; 24 hours", "result": 0.253}, {"measurement": "MTS assay result, run 6", "setting": "MiaPaCa-2 cells; 24 hours", "result": 0.238}, {"measurement": "MTS assay result, run 7", "setting": "MiaPaCa-2 cells; 24 hours", "result": 0.27}, {"measurement": "MTS assay result, run 8", "setting": "MiaPaCa-2 cells; 24 hours", "result": 0.254}, {"measurement": "MTS assay result, run 9", "setting": "MiaPaCa-2 cells; 24 hours", "result": 0.247}, {"measurement": "rel amt (relative value set to the control)", "setting": "MiaPaCa-2 cells; 48 hours", "result": 86}, {"measurement": "MTS assay result, run 1", "setting": "MiaPaCa-2 cells; 48 hours", "result": 0.308}, {"measurement": "MTS assay result, run 2", "setting": "MiaPaCa-2 cells; 48 hours", "result": 0.313}, {"measurement": "MTS assay result, run 3", "setting": "MiaPaCa-2 cells; 48 hours", "result": 0.342}, {"measurement": "MTS assay result, run 4", "setting": "MiaPaCa-2 cells; 48 hours", "result": 0.269}, {"measurement": "MTS assay result, run 5", "setting": "MiaPaCa-2 cells; 48 hours", "result": 0.352}, {"measurement": "MTS assay result, run 6", "setting": "MiaPaCa-2 cells; 48 hours", "result": 0.277}, {"measurement": "MTS assay result, run 7", "setting": "MiaPaCa-2 cells; 48 hours", "result": 0.305}, {"measurement": "MTS assay result, run 8", "setting": "MiaPaCa-2 cells; 48 hours", "result": 0.339}, {"measurement": "MTS assay result, run 9", "setting": "MiaPaCa-2 cells; 48 hours", "result": 0.313}, {"measurement": "rel amt (relative value set to the control)", "setting": "MiaPaCa-2 cells; 72 hours", "result": 103}, {"measurement": "MTS assay result, run 1", "setting": "MiaPaCa-2 cells; 72 hours", "result": 0.523}, {"measurement": "MTS assay result, run 2", "setting": "MiaPaCa-2 cells; 72 hours", "result": 0.478}, {"measurement": "MTS assay result, run 3", "setting": "MiaPaCa-2 cells; 72 hours", "result": 0.464}, {"measurement": "MTS assay result, run 4", "setting": "MiaPaCa-2 cells; 72 hours", "result": 0.453}, {"measurement": "MTS assay result, run 5", "setting": "MiaPaCa-2 cells; 72 hours", "result": 0.443}, {"measurement": "MTS assay result, run 6", "setting": "MiaPaCa-2 cells; 72 hours", "result": 0.456}, {"measurement": "MTS assay result, run 7", "setting": "MiaPaCa-2 cells; 72 hours", "result": 0.383}, {"measurement": "MTS assay result, run 8", "setting": "MiaPaCa-2 cells; 72 hours", "result": 0.451}, {"measurement": "MTS assay result, run 9", "setting": "MiaPaCa-2 cells; 72 hours", "result": 0.456}]}]}
